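Test compounds were applied to cells in 96-well plates for 48 hours at 5 doses. Abbreviation: GI50, concentration required for 50% inhibition of growth. The concentration for full growth arrest is given as TGI.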
Columns and labels:
Test in all cases: inhibition of tumour cell growth, NCI panel, 48 h
CCRF-CEM leukemia = system: CCRF-CEM leukemia
HCC-2998 colon = system: HCC-2998 colon
HL-60(TB) leukemia = system: HL-60(TB) leukemia
M14 melanoma = system: M14 melanoma
MALME-3M melanoma = system: MALME-3M melanoma
MDA-MB-435 = system: MDA-MB-435
PC-3 prostate = system: PC-3 prostate
SK-MEL-28 melanoma = system: SK-MEL-28 melanoma
T-47D breast = system: T-47D breast
UO-31 renal = system: UO-31 renal

SMILES	TGI (CCRF-CEM leukemia)	TGI (HCC-2998 colon)	TGI (HL-60(TB) leukemia)	TGI (M14 melanoma)	TGI (MALME-3M melanoma)	TGI (MDA-MB-435)	TGI (PC-3 prostate)	TGI (SK-MEL-28 melanoma)	TGI (T-47D breast)	TGI (UO-31 renal)	GI50 (CCRF-CEM leukemia)	GI50 (HCC-2998 colon)	GI50 (HL-60(TB) leukemia)	GI50 (M14 melanoma)	GI50 (MALME-3M melanoma)	GI50 (MDA-MB-435)	GI50 (PC-3 prostate)	GI50 (SK-MEL-28 melanoma)	GI50 (T-47D breast)	GI50 (UO-31 renal)
O=C(O)C(CO)NC(=O)C1C(C(=O)O)C(c2ccccc2[N+](=O)[O-])C=C(c2ccco2)N1c1ccncc1 (configuration not stated)	5.32 µM	9.13 µM	> 100 µM	13.9 µM	29.1 µM	16.8 µM	22.1 µM	22.5 µM	23.9 µM	10.4 µM										
CC(C)C(/C=C/c1ccccc1)=N\NC(=S)NN	> 89.9 µM	> 100 µM	> 100 µM	> 100 µM	> 100 µM	> 100 µM	> 100 µM	> 100 µM	> 100 µM	> 100 µM										
O=C1/C(=C2\SCC(=O)N2c2ccccc2)SC(=S)N1c1ccccc1	> 100 µM	62.1 µM	> 100 µM	> 100 µM	> 100 µM	> 100 µM	> 100 µM	> 100 µM	> 100 µM											
C=C1[C@H](OCC(C)C)[C@@H](OC(=O)C(C)CC)[C@@H](O)C(C)(C)/C=C/[C@H](C)C(=O)[C@@]2(O)C[C@H](C)[C@H](O)[C@@H]2[C@H]1OC(=O)C(C)CC (some centres not stated)	> 9.76 µM	> 9.84 µM	19 µM	> 11.1 µM	> 20 µM	> 20 µM	> 14.8 µM	> 20 µM	> 20 µM	> 5.12 µM										
COC1CCC(n2c([C@@H]3CCCC(=O)N3c3ccc(F)c(F)c3)nc3cc(-c4c(C)noc4C)ccc32)CC1 (some centres not stated)	57.7 µM	19.6 µM	36.4 µM	19.9 µM	17.7 µM	82.7 µM	44.1 µM	28.1 µM	50.7 µM	14.5 µM	4.66 µM	4.19 µM	0.851 µM	1.87 µM	1.74 µM	8.01 µM	3.5 µM	11.8 µM	2.03 µM	1.64 µM
C/C(=N\NC(=O)N/N=C(\C)c1ccccn1)c1ccccn1	> 100 µM	> 100 µM	> 100 µM	> 100 µM	> 100 µM	> 100 µM	> 100 µM	> 100 µM	> 100 µM	> 100 µM										
OCCNc1nc2c(N3CCCC3)nc(N3CCNCC3)nc2nc1NCc1ccccc1	30 µM	29.1 µM	32.8 µM	29.4 µM	35.9 µM	25.1 µM	30.7 µM	32.5 µM	30.8 µM	28.7 µM										
COc1cccc(/C=N/n2c(Cc3ccc(Cl)cc3)n[nH]c2=O)c1	> 100 µM	> 100 µM	> 100 µM	> 100 µM	> 100 µM	> 100 µM	> 100 µM	> 100 µM	> 68.2 µM	> 100 µM										
CCOC(=O)C1=CN(C(=O)c2ccccc2)CCC1Cc1ccccc1 (configuration not stated)	54.5 µM	38.5 µM	32.2 µM	37.1 µM	68 µM	51 µM	78.1 µM	63.3 µM	72.8 µM	77.9 µM										
Cn1c(=O)c2[nH]c(-n3nc(-c4ccccc4)cc3N)nc2n(C)c1=O	> 100 µM	> 100 µM	61.2 µM	50 µM	47 µM	> 100 µM	> 100 µM	57.3 µM	65.9 µM	> 100 µM										
O=C1OC(C(O)C(O)C(O)CO)C(O)C1O (configuration not stated)	> 100 µM	> 100 µM	> 100 µM	> 100 µM	> 100 µM	> 100 µM	> 100 µM	> 100 µM	> 100 µM	> 100 µM										
Cc1ccc(CC(=O)Nc2ccc(NC(=O)CNC(=O)/C=C/c3ccc(-c4ccccc4)cc3)cc2C(=O)c2ccccc2)cc1	17.1 µM	4.98 µM	20.7 µM	17.3 µM	12.3 µM	16.1 µM	4.07 µM	66.6 µM	3.89 µM	24.7 µM										
O=C(NC(CO)CO)c1ccc2cc(C(=O)N3CC(CCl)c4ccc([N+](=O)[O-])cc43)[nH]c2c1 (configuration not stated)	> 100 µM	> 100 µM	> 100 µM	> 100 µM	> 100 µM	> 100 µM	> 100 µM	> 100 µM	64.2 µM	> 100 µM										
Nc1ccc(-c2nc3cc(F)ccc3s2)cc1	> 100 µM	> 100 µM	> 100 µM	> 100 µM	> 100 µM	> 100 µM	45.8 µM	> 100 µM	> 100 µM	> 100 µM										
c1cn[nH]c1	> 10 µM	> 10 µM	> 10 µM		> 10 µM	> 10 µM	> 10 µM	> 10 µM	> 10 µM	> 10 µM										
Clc1ccc(-c2nn3c(C45CC6CC(CC(C6)C4)C5)nnc3s2)cc1	> 100 µM	> 100 µM	> 100 µM	> 100 µM	> 100 µM	> 100 µM	> 100 µM	> 100 µM	> 100 µM	> 100 µM										

SMILES	TGI (CCRF-CEM leukemia)	TGI (HCC-2998 colon)	TGI (HL-60(TB) leukemia)	TGI (M14 melanoma)	TGI (MALME-3M melanoma)	TGI (MDA-MB-435)	TGI (PC-3 prostate)	TGI (SK-MEL-28 melanoma)	TGI (T-47D breast)	TGI (UO-31 renal)	GI50 (CCRF-CEM leukemia)	GI50 (HCC-2998 colon)	GI50 (HL-60(TB) leukemia)	GI50 (M14 melanoma)	GI50 (MALME-3M melanoma)	GI50 (MDA-MB-435)	GI50 (PC-3 prostate)	GI50 (SK-MEL-28 melanoma)	GI50 (T-47D breast)	GI50 (UO-31 renal)
COC1=C(OC)C(=O)C(Cc2c(Cl)nc3n2CCS3)=C(C)C1=O	8.98 µM	37.6 µM	6.4 µM	27.2 µM	21.6 µM	29.2 µM	64.2 µM	27.2 µM	54.1 µM	28.3 µM										
C=C(COC(=O)C(C)C)[C@H]1Oc2ccc(C(C)=O)cc2[C@@H]1OC(=O)C(C)C	> 100 µM	> 100 µM	> 100 µM	> 100 µM	> 100 µM	> 100 µM	> 100 µM	> 100 µM	> 100 µM	> 100 µM										
COc1cc(C2c3cc4c(cc3OC(N3CCOCC3)C2C)OCO4)cc(OC)c1OC(C)=O (configuration not stated)	> 100 µM	50.5 µM	> 59 µM	> 56.8 µM	> 85.7 µM	14.4 µM	> 100 µM	> 91.6 µM	> 81.8 µM	> 100 µM										
COc1cnnc2c(C)c(-c3ccccc3)nn12	> 100 µM	> 100 µM	> 100 µM	> 100 µM	> 100 µM	> 100 µM	> 100 µM	> 100 µM	> 100 µM	> 100 µM										
Cc1[nH]c(=O)[nH]c(=O)c1C(=O)N(CCO)Cc1ccccc1	> 100 µM	> 100 µM	> 100 µM	> 100 µM	> 100 µM	> 100 µM	94.8 µM	> 100 µM	> 100 µM	> 100 µM										
COC1=CCC2=C(CCN(C(=O)C3CCC3)C2Cc2ccc(OC)c(O)c2)C1 (configuration not stated)	> 100 µM	41.3 µM	51.5 µM	78.9 µM	> 100 µM	10.5 µM	> 100 µM	> 100 µM	62.4 µM											
CC(C)(CN1CCCCC1)C(=O)/C=C/c1c(Cl)cccc1Cl	2.73 µM	3.23 µM	4.37 µM	2.32 µM	2.16 µM	2.85 µM	3.46 µM	3.2 µM	1.44 µM	2.27 µM										
c1ccc(-c2nc3ccccc3n3nnnc23)cc1	> 100 µM	> 100 µM	> 100 µM	> 100 µM	> 100 µM	> 100 µM	> 100 µM	> 100 µM	97.3 µM	1.57 µM										
Cc1nc(N)nc(N)c1N1CCN(Cc2ccccc2)CC1	> 100 µM	> 100 µM	> 100 µM	> 100 µM	> 69 µM	> 100 µM	> 100 µM	> 100 µM	> 100 µM	> 100 µM										
CCOC(=O)/C=C(/C(=O)OCC)n1ccc(=O)[nH]c1=O	3.99 µM	32.3 µM	4.08 µM	13.2 µM	4.4 µM	24.4 µM	26.8 µM	18.4 µM	16.6 µM	27.8 µM										
OC1(c2ccc(Cl)cc2)c2ccccc2C2=NCc3ccccc3CN21 (configuration not stated)	> 69.6 µM	5.13 µM	17.4 µM	8.08 µM	27.1 µM	22.7 µM	15.2 µM	9.58 µM	> 61.7 µM	22.3 µM										
O=Cc1cc(O)c(O)c(/C=N/n2c3ccccc3c3ccccc32)c1	9.87 µM	30.9 µM	6.32 µM	23.6 µM	30.8 µM	28.3 µM	28.7 µM	42.1 µM	40.4 µM	26.1 µM										
O=C1C(CN2CCCC2)CCCC1CN1CCCC1 (configuration not stated)	0.231 µM	34.3 µM	0.445 µM	3.3 µM	1.27 µM	7.43 µM	32.3 µM	8.94 µM	6.96 µM	2.31 µM										
CC(=O)C(C(=O)C(C)(C)C)C(=O)C(C)(C)C	> 100 µM	> 100 µM	> 100 µM	> 100 µM	> 100 µM	> 100 µM	> 100 µM	> 100 µM	> 100 µM	> 100 µM										
O=C(CCC(=O)OCC1OC(O)(CC2OC(CO)C(O)C(O)C2O)C(O)C1O)OCc1ccccc1 (configuration not stated)	> 100 µM	> 100 µM	> 100 µM	> 100 µM	> 100 µM	> 100 µM	> 100 µM	> 100 µM	> 100 µM	> 100 µM										
